Test results taken from paper PMC11843658 (Journal of Enzyme Inhibition and Medicinal Chemistry, 2025).

How the values were obtained:
A549 cells = assay: CCK8 assay, A549 lung cancer cells; assay type: cell-based; details: Homo sapiens, 10 μM, 48 h, read-out: cell viability rate
Experimental: (§1) C42B, PC3, Caco-2, HepG2, MCF7, HL-60, 8505 C, OVCAR-3, and A549 were cultured to screen the broad-spectrum antiproliferative activity of compound 14. For above cell lines, three thousand cells per well were seeded in the 96-well plate and treated by compound 14 for 48 or 72 h at different concentrations (0, 5, 10, and 20 μM). In addition, HepG2, HEP3B, HUH6, and HUH7 were cultured to screen its antiproliferative activity against liver cancer cell lines. For these liver cancer cell lines, two thousand cells per well were seeded in the 96-well plate and treated by compound 14 for 48 h at different concentrations (0, 0.625, 1.25, 2.5, and 5 μM). Then, 10 μl of CCK8 was added into each well and cells were incubated in a humidified atmosphere of 5% CO2 at 37 °C for 4 h. The 96-well plate was measured with a microplate reader (Bio-Tek, San Diego, CA) at a wavelength of 450 nm to calculate IC50 values.

HUH7 cells = assay: CCK8 assay, HUH7 liver cancer cells; assay type: cell-based; details: Homo sapiens, Huh-7, CCK8, 48 h, 0-5 μM, read-out: IC50, antiproliferative activity
Experimental: as §1

HUH6 cells = assay: CCK8 assay, HUH6 liver cancer cells; assay type: cell-based; details: Homo sapiens, HuH-6, CCK8, 48 h, 0-5 μM, read-out: IC50, antiproliferative activity
Experimental: as §1

HEP3B cells = assay: CCK8 assay, HEP3B liver cancer cells; assay type: cell-based; details: Homo sapiens, CCK8, 48 h, 0-5 μM, read-out: IC50, antiproliferative activity
Experimental: as §1

8505 C cells = assay: CCK8 assay, 8505 C thyroid cancer cells; assay type: cell-based; details: Homo sapiens, 10 μM, 48 h, read-out: cell viability rate
Experimental: as §1

HepG2 cells [1] = assay: Wound healing and transwell assays; assay type: cell-based, Human; details: 48 h, compared to control group
Experimental: Cancer cells were seeded into a 6-well plate for 12 h and each well was scratched using a sterile micropipette tip. Cellular debris was removed by PBS solution (Servicebio, Wuhan, China), and compound 14 at different concentrations (0, 0.5 μM, 1 μM, and 2 μM) was added. The 6-well plate was incubated for 48 h and photographed on a microscope.
Cancer cells were seeded into a Transwell 24-well plate (Corning, NY) and compound 14 was added. About 20% foetal bovine serum and 1% heat-inactivated foetal bovine serum were respectively added into the lower and upper chamber. The 24-well plate was incubated for 48 h at 37 °C, and it was washed by water. Cancer cells were fixed with cold ethanol for 20 min and stained with haematoxylin solution (Servicebio, Wuhan, China).

OVCAR-3 cells = assay: CCK8 assay, OVCAR-3 ovarian cancer cells; assay type: cell-based; details: Homo sapiens, 10 μM, 48 h, read-out: cell viability rate
Experimental: as §1

PC3 cells = assay: CCK8 assay, PC3 prostate cancer cells; assay type: cell-based; details: Homo sapiens, PC-3, 10 μM, 48 h, read-out: cell viability rate
Experimental: as §1

HepG2 cells [2] = assay: CCK8 assay, HepG2 liver cancer cells; assay type: cell-based; details: Homo sapiens
Experimental: as §1

H3K4me1/2 = assay: Western blotting of LSD1 substrates H3K4me1/2; assay type: cell-based; details: Western blotting, 0, 0.5, 1, and 2 μM, 48 h
Experimental: Compound 14 at different concentrations (0, 0.5, 1, and 2 μM) was added into cancer cells solution and incubated for 48 h. Total protein was isolated from cells using RIPA buffer (Servicebio, Wuhan, China). An amount of […] of total protein were separated by sodium dodecyl sulphate polycrylamide gel electrophoresis and transferred to PVDF membranes. 5% non-fat milk (Servicebio, Wuhan, China) was used to block PVDF membranes and incubated with primary antibody for 12 h at 4 °C. Then, PVDF membranes were washed by TBST buffer (Servicebio, Wuhan, China) and incubated with secondary antibody at room temperature for 2 h. The enhanced chemiluminescence kit (Servicebio, Wuhan, China) was used to visualise immunoreactive bands. H3, GAPDH, Vimentin, N-cadherin, and E-cadherin as antibodies were purchased from Servicebio (Wuhan, China). Catalogue numbers of H3, GAPDH, Vimentin, N-cadherin, and E-cadherin as antibodies in Servicebio are GB11102, GB15004, GB11192, GB12135, and GB12868, respectively. H3K4me1 and H3K4me2 were obtained from Proteintech Group, Inc (Wuhan, China). Catalogue numbers of H3K4me1 and H3K4me2 as antibodies in Proteintech Group are 91289 and 39679, respectively.

MCF7 cells = assay: CCK8 assay, MCF7 breast cancer cells; assay type: cell-based; details: Homo sapiens, 10 μM, 48 h, read-out: cell viability rate
Experimental: as §1

HepG2 cells [3] = assay: Xenograft study, HepG2 cells in nude mice; assay type: in vivo, BALB/c nude mice; details: 60 mg/kg by gavage every day for 21 days
Experimental: Tumorigenesis in nude mice could stimulate the growth process of human tumours in the body, and could be used to develop and evaluate the effectiveness and safety of anti-cancer candidates. Therefore, xenograft studies in nude mice were performed to evaluate anticancer effects of compound 14. Animals were treated according to the protocols established by the ethics committee of The Fourth Clinical College of Xinxiang Medical University. The in vivo experiments were carried out in accordance with the approved guidelines and approved by the ethics committee of The Fourth Clinical College of Xinxiang Medical University. The number of ethics approvals is XMU-2024–01-03. All authors have adhered to the ARRIVE guidelines (https://arriveguidelines.org/). BALB/c nude mice were purchased from Beijing Huafukang Biotechnology Co., LTD (Beijing, China), and fifteen mice were used in this study (aged 6–7 weeks and weighing 20–30 g). Before the animal experiments, all nude mice were given a week to adjust to the clean, hygienic and specific-pathogen-free environment. All nude mice were taken care of instainless steel cages with a constant temperature of 60% humidity, 25 °C and a 12/12 light/dark cycle. Nude mice were fed with refreshing water and nourishing food everyday.
Then, nude mice were anaesthetised with 2% isoflurane and 0.3 l/min of oxygen by the small animal anaesthesia machine (Beijing Yi Zejia Technology Co., LTD, Beijing, China). 3 × 10^5 human liver cancer HepG2 cells were subcutaneously injected in the right armpit of mice. Until the volume of tumours reached 60–100 mm^3, all mice were randomly divided into three groups and each group had five nude mice. An amount of 60 mg/kg of compound 14, 10 mg/kg of seclidemstat and water as the control group were given by gavage every day for 21 days. Weight of mice and tumour volume were measured every 3 d. All nude mice in this xenograft studies were performed euthanizing procedures using a carbon dioxide euthanasia chamber (Shanghai Yuyan Instruments Co., Ltd, Shanghai, China). The flow rate of carbon dioxide was adjusted at 20% of the volume of the euthanasia chamber per minute. Once nude mice were unconscious, the flow rate was increased to 100% of the euthanasia chamber volume per minute. Death was confirmed by immobility, non-breathing and pupil enlargement. Tumours form BALB/c nude mice were isolated and weighed.

COc1ccc(CN(C(=O)CCN2C(=O)CCCC2=O)c2cc(OC)c(OC)c(OC)c2)cc1 [Compound 14, 3-(2,6-dioxopiperidin-1-yl)-N-(4-methoxybenzyl)-N-(3,4,5-trimethoxyphenyl)propanamide]
viability at 10 µM (A549 cells): 41.1% | IC50 (HUH7 cells): 4370 nM | IC50 (HUH6 cells): 1430 nM | IC50 (HEP3B cells): 2090 nM | viability at 10 µM (8505 C cells): 49.7% | migration of HepG2 cells (HepG2 cells [1]): significantly suppresses the migration of HepG2 cells | viability at 10 µM (OVCAR-3 cells): 80.7% | viability at 10 µM (PC3 cells): 52% | viability at 10 µM (HepG2 cells [2]; 10 μM, 48 h, read-out: cell viability rate): 14.2% | IC50 (HepG2 cells [2]; CCK8, 48 h, 0-5 μM, read-out: IC50, antiproliferative activity): 930 nM | methylation levels of H3K4me1 and H3K4me2 (H3K4me1/2): increase the methylation levels of H3K4me1 and H3K4me2 | viability at 10 µM (MCF7 cells): 49.7% | growth of subcutaneous tumours (HepG2 cells [3]; nude mice bearing HepG2 cells): inhibited the growth of subcutaneous tumours | tumour growth inhibition rate (HepG2 cells [3]; tumour weight, nude mice bearing HepG2 cells): 50.3% | tumour volume (HepG2 cells [3]; vs control group): significantly lower than that in control group | tumour weight (HepG2 cells [3]; vs control group): lower than that of control group
